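Tested at 5 concentrations; 48 h exposure; 96-well plates; endpoints linearly interpolated, else capped at highest concentration. The concentration for 50% growth inhibition is given as GI50.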 Calls of active or inactive are those of the source. Rule as the data show it: active = GI50 up to about 1.1 µM and inactive = higher.
What was measured:
Assay in all cases: inhibition of tumour cell growth, NCI panel, 48 h
DU-145 = system: DU-145
BT-549 = system: BT-549
DLD-1 = system: DLD-1
DMS-273 = system: DMS-273
M19-MEL = system: M19-MEL
SNB-78 = system: SNB-78
XF498 = system: XF498

Row | SMILES | GI50 (DU-145) | GI50 (BT-549) | further results
1 | O=C1CCC[C@H]2O[C@@H](COC(=O)c3ccccc3)C[C@H]2O1 | > 100 µM (inactive) |  | 
2 | N#CC(C#N)SCc1ccccc1 | 22.9 µM (inactive) | 1.85 µM (inactive) | GI50 (DLD-1): 36.6 µM (inactive); GI50 (DMS-273): 39.2 µM (inactive); GI50 (M19-MEL): 54.1 µM (inactive); GI50 (SNB-78): 33 µM (inactive)
3 | O=C(/C=C/c1ccc(-c2ccccc2)cc1)NCc1ccc(C(=O)NCCc2c[nH]c3ccccc23)cc1 | > 100 µM (inactive) | 37.2 µM (inactive) | 
4 | CCCSc1cc(Cl)c(C)cc1S(=O)(=O)n1ccnc1OCCCN(C)C | > 100 µM (inactive) | > 100 µM (inactive) | 
5 | O=[N+]([O-])c1nccn1COCCF |  |  | GI50 (DLD-1): > 100 µM (inactive); GI50 (M19-MEL): > 100 µM (inactive); GI50 (SNB-78): > 100 µM (inactive); GI50 (XF498): > 100 µM (inactive)
6 | [O-]/N=[N+](/[O-])C1CCCCC1=[N+]1CCOCC1 (stereo not given) |  |  | GI50 (M19-MEL): > 100 µM (inactive); GI50 (SNB-78): > 100 µM (inactive); GI50 (XF498): 0.157 µM (active)
7 | CO/C(=C/C(=O)C(Cl)(Cl)Cl)CC/C(=C\C(=O)C(Cl)(Cl)Cl)OC | 25.1 µM (inactive) | 27.9 µM (inactive) | 
8 | Cc1ccc([S+]([O-])c2sccc2C=O)cc1 (stereo not given) | 54.3 µM (inactive) | 25 µM (inactive) | 
9 | O=C(CNC(=O)OCc1ccccc1)NCCCCC(NC(=O)OCc1ccccc1)C(=O)NC(CCCCNC(=O)CNC(=O)OCc1ccccc1)C(=O)OCc1ccccc1 (stereo not given) | > 62.5 µM (inactive) | > 62.5 µM (inactive) | 
10 | CC1CC(=O)N2CCCNC2=C1C#N (stereo not given) | > 100 µM (inactive) | > 100 µM (inactive) | 
11 | CC(C)OP(=O)(OC(C)C)/C(=N/Nc1ccc([N+](=O)[O-])cc1)NN |  |  | GI50 (DLD-1): > 100 µM (inactive); GI50 (DMS-273): > 100 µM (inactive); GI50 (M19-MEL): > 100 µM (inactive); GI50 (SNB-78): > 100 µM (inactive); GI50 (XF498): 68.9 µM (inactive)
12 | CP(C)(=S)P(C)(C)=S | > 100 µM (inactive) | > 100 µM (inactive) | 
13 | O=C1OC(c2ccccc2)=N/C1=C/NC(Cc1c[nH]c2ccccc12)C(=O)O (stereo not given) |  |  | GI50 (DLD-1): > 100 µM (inactive); GI50 (DMS-273): > 100 µM (inactive); GI50 (M19-MEL): > 100 µM (inactive); GI50 (SNB-78): > 100 µM (inactive); GI50 (XF498): > 100 µM (inactive)
14 | Cc1ccc(C2C(Cl)C(=O)N2NC(=O)c2ccc(N)cc2)cc1 (stereo not given) |  |  | GI50 (DLD-1): 20.5 µM (inactive); GI50 (DMS-273): 2.46 µM (inactive); GI50 (M19-MEL): 19.8 µM (inactive); GI50 (SNB-78): 5.46 µM (inactive); GI50 (XF498): 13.3 µM (inactive)
15 | CC(=O)C1(Cc2cccc3ccccc23)S(=O)(=O)OCCOS1(=O)=O | 18.4 µM (inactive) | 16.9 µM (inactive) | 
16 | COc1c(/C=C/C=O)cc2c(c1OC)OCO2 | 28.4 µM (inactive) | 47.3 µM (inactive) | 
17 | COc1c2c(nc3ccccc13)-c1cc(C(CC(=O)OC(C)(C)C)C(=O)OC(C)C)c(CO)c(=O)n1C2 (stereo not given) | 22.2 µM (inactive) | > 66.4 µM (inactive) | 
18 | CN1CCc2cc(O)c3cc2C1Cc1ccc(cc1)Oc1cc(ccc1O)CC1c2c(cc4c(c2O3)OCO4)CCN1C (stereo not given) |  |  | GI50 (DLD-1): 75.3 µM (inactive); GI50 (DMS-273): 24.8 µM (inactive); GI50 (SNB-78): > 100 µM (inactive); GI50 (XF498): 14.4 µM (inactive)
19 | C=C(C[C@@H](O)[C@H](C)NC(=O)OCc1ccccc1)C(=O)OC(C)(C)C | 45.7 µM (inactive) | 95.9 µM (inactive) | 
20 | Cc1ccc(C(=O)N/N=C(\N=N\c2ccccc2)c2ccc(N(CCC#N)CCC#N)cc2C)cc1 | > 100 µM (inactive) |  | 
21 | N#C/C(=C/C=C/c1ccco1)C(N)=O | > 10 µM (inactive) |  | 
22 | COc1ccc(/C=C2/CSCC3=C2N=C(S)NC3c2ccc(OC)c(OC)c2OC)c(OC)c1OC (stereo not given) | 38.3 µM (inactive) |  | 
23 | C[n+]1cn(-c2ccc([N+](=O)[O-])cn2)c2ccccc21 | > 100 µM (inactive) | > 100 µM (inactive) | 
24 | N#Cc1c(C#N)c(-c2ccccc2)n(Cc2ccccc2)c1N | > 100 µM (inactive) | > 100 µM (inactive) | 
25 | Clc1cccc(N/N=N/c2ccc(-c3nc4ccccc4s3)cc2)c1 | > 100 µM (inactive) | 51.2 µM (inactive) | 

Row | SMILES | GI50 (DU-145) | GI50 (BT-549) | further results
26 | Cn1c(=N)n[n+]([O-])c2ccccc21 | 2.28 µM (inactive) | 2.01 µM (inactive) | 
27 | Cc1ccc(NCC2(/N=C/c3ccccc3)OC(CO)C(O)C2O)cc1 (stereo not given) |  |  | GI50 (DLD-1): 72.4 µM (inactive); GI50 (DMS-273): 31.2 µM (inactive); GI50 (XF498): > 100 µM (inactive)
28 | COC(=O)C[C@H](COCc1ccccc1)NC(=O)C[C@H](COCc1ccccc1)NC(=O)C[C@H](COCc1ccccc1)NC(=O)OC(C)(C)C | 23.3 µM (inactive) | > 100 µM (inactive) | 
29 | CSc1c(C#N)c(O)n(-c2ccc(C)cc2)c(=O)c1C#N | > 100 µM (inactive) | > 100 µM (inactive) | 
30 | Cc1cc(NS(=O)(=O)c2ccc(Nc3c4ccccc4nc4ccc(C(=O)Nc5ccc(S(N)(=O)=O)cc5)cc34)cc2)no1 | > 100 µM (inactive) | > 100 µM (inactive) | 
31 | COc1cc(/C=C2\C[C@H]3[C@@H]4CC=C5C[C@@H](OC(C)=O)CC[C@]5(C)[C@H]4CC[C@]3(C)\C2=N\O)cc(OC)c1OC | 4.42 µM (inactive) | 5.01 µM (inactive) | 
32 | NC1c2c(Br)sc(N3CCCC3)c2C(=O)C1O (stereo not given) | > 50 µM (inactive) | > 50 µM (inactive) | 
33 | CCCCCOc1ccc(NC2=C(Cl)C(=O)c3c(O)ccc(O)c3C2=O)cc1 | > 10 µM (inactive) | 4.42 µM (inactive) | 
34 | C[C@@H]1S[C@H](c2c(Cl)cccc2Cl)N2Cc3ccccc3N=C12 | > 100 µM (inactive) | > 100 µM (inactive) | 
35 | CC(C)=CCc1c2c(c(O)c3c(=O)c4c(oc13)-c1ccc(O)cc1OC4C=C(C)C)C=CC(C)(C)O2 (stereo not given) | 14 µM (inactive) | 13.9 µM (inactive) | 
36 | CSc1nc(=O)n(CCC#N)nc1SC | 51.8 µM (inactive) | 23.5 µM (inactive) | 
37 | CCN(CC)CCOC(NC(C)=O)(c1ccccc1)c1ccccc1 | > 100 µM (inactive) |  | 
38 | Nc1nc(Cl)c(N)c(NC23CC4CC(CC(C4)C2)C3)n1 | 2.22 µM (inactive) | 2.25 µM (inactive) | 
39 | COC(=O)c1cc(CC(C)C)c2c(c1)[nH]c1ccccc12 |  |  | GI50 (DLD-1): > 100 µM (inactive); GI50 (DMS-273): 53.7 µM (inactive); GI50 (M19-MEL): > 100 µM (inactive); GI50 (XF498): > 100 µM (inactive)
40 | O=C(CSCC(=O)N/N=C/c1ccncc1)N/N=C/c1ccncc1 | > 100 µM (inactive) | > 100 µM (inactive) | 
41 | O=C(NCCN(CCNC(=O)c1cccc(=O)n1O)CCN(CCNC(=O)c1cccc(=O)n1O)CCNC(=O)c1cccc(=O)n1O)c1cccc(=O)n1O | > 100 µM (inactive) | > 100 µM (inactive) | 
42 | CC(=O)OC[C@@]12Cc3ccc(C)c(O)c3[C@]1(C)[C@@H](OC(C)=O)[C@]1(O)[C@H]([C@@H](OC(=O)c3ccccc3)[C@@H](C)[C@H]1OC(C)=O)[C@H]2OC(C)=O | > 50 µM (inactive) | > 50 µM (inactive) | 
43 | Nc1nc(Cl)cc(NC2(CO)CCC2)n1 | > 100 µM (inactive) | > 100 µM (inactive) | 
44 | C/C(=N\Nc1nc2ccccc2[nH]1)c1ccc2ccccc2n1 | 1.91 µM (inactive) | > 100 µM (inactive) | 
45 | NC1=NCC(CN2CCCCC2)O1 (stereo not given) |  | > 100 µM (inactive) | 
46 | CC1(C)C=Cc2c(cc3oc4ccc5c(c4c(=O)c3c2O)C=CC(C)(C)O5)O1 | > 100 µM (inactive) | > 100 µM (inactive) | 
47 | CC(=O)NNc1nc(C)c(C(/C=C/c2ccc([N+](=O)[O-])cc2)=N/NC(N)=O)s1 | > 100 µM (inactive) | > 100 µM (inactive) | 
48 | Cc1ccc(S(=O)(=O)NC(CO)C(=O)O)cc1 (stereo not given) | > 100 µM (inactive) | > 100 µM (inactive) | 
49 | O=C(NNC(=O)c1ccncc1)c1ccncc1 | > 100 µM (inactive) | > 100 µM (inactive) | 
50 | COc1cc(OCCN(C)C)c2[nH]c(C(=O)N3CC(CCl)c4ccc(N)cc43)cc2c1 (stereo not given) | 0.0142 µM (active) | 0.351 µM (active) | 

From ChEMBL document CHEMBL1201862, “PubChem BioAssay data set” (2004)
